{"source": "patent US7838536B2", "about": "“Water-soluble zinc ionophores, zinc chelators, and/or zinc complexes and use for treating cancer” (priority 2006, dated 2010)", "key": {"[1]": {"test_system": "DU145 prostate cancer cells", "settings": "DU145 xenograft, intravenous 60 μmol/kg q.d.×4, formulated in 30% THPB-P beta-cyclodextrin vehicle, FIG. 31", "procedure": "(§1) Human cell lines (A549 lung carcinoma, PC3 and DU145 prostatic carcinoma, and potentially others) were used. Mice received XRT (whole body radiation) up to 2 days prior to inoculation to minimize tumor regression due to residual immunological systems. The animal was administered a sub-lethal dose of whole body radiation of up to 4.5 Gy. The published literature indicates the LD50/30 dose for whole body radiation in the mouse to be 6.2 Gy. At the time of tumor implantation, mice were anesthetized by isoflurane inhalation or by IP injection of a ketamine/xylazine cocktail. Using vernier calipers, tumor size was measured; and tumor volume calculated on day 0 of study, at a minimum of 2-3 times/week and immediately prior to scheduled sacrifice. The tumor volume was estimated using the formula for a prolate ellipsoid: V=[(length)×(width)^2]/2 or hemi-ellipsoid: V=π/6×(length)×(width)×(height). When tumors reached a predetermined tumor volume animals were divided into treatment groups followed by test/control article dosing. Maximum allowable tumor burden prior to sacrifice is a mean surface diameter of 20 mm or not more than 10% of the animal's body weight as described in the NIH tumor burden guidelines for mice."}, "cancer cells [2]": {"test_system": "cancer cells", "test": "intracellular free zinc in cancer cells", "assay_type": "cell-based", "settings": "previously found", "procedure": "The concentration of intracellular free zinc is assessed using the ion-specific fluorescent probe, FluoZin-3-AM-(FluoZin-3, Molecular Probes, Inc.). […] Following treatment, cells are isolated by centrifugation. Cell pellets are washed and re-suspended in a solution of 0.5% BSA in PBS. An aliquot of 10^6 cells (200 μL) is removed, centrifuged, and treated with FluoZin-3 reaction buffer An aliquot of the cell suspension is supplemented with 2 μg/mL propidium iodide (Sigma Biochemical), incubated for 5 minutes, and subjected to two-parameter flow cytometric analysis. See, e.g., FIG. 27."}, "[3]": {"settings": "zinc binding motif, well known; cited from earlier work"}, "cancer cells [4]": {"test_system": "cancer cells", "settings": "reported; cited from earlier work"}, "[5]": {"settings": "cited from earlier work"}, "thioredoxin reductase": {"test_system": "thioredoxin reductase", "settings": "cells co-treated with MGd and ZnHPT, previously found", "protocol": "Thioredoxin reductase activity is assessed by measuring the rate of lipoate reduction. In brief, A549 or PC3 cells (10,000 cells/well) are plated on 96-well plates and allowed to adhere overnight and grow two additional days until confluent. Cells are treated with ZnHPT, PEGZnHPT, MGd, zinc, or 5% mannitol as above for 4 hours. Medium is removed, cells are washed with Hanks Balanced Salt Solution (HBSS), and a solution of 5 mM lipoic acid and 1 mM 5,5′-dithiobis(2-nitrobenzoic acid) in HBSS (100 μL/well) is added. Plates are incubated at ambient temperature in the dark. At chosen time intervals, plate absorbance is measured at 405-650 nm. Plate absorbances are normalized to wells containing neither exogenous zinc nor texaphyrin complex to allow plate-to-plate comparison."}, "[6]": {"test_system": "cell lines including A549 lung, PC3 prostate, K1 and E89 Chinese hamster ovary (CHO), Ramos, DHL-4, and HF-1 B-cell lymphoma", "test": "standard tetrazolide reduction proliferation assay", "assay_type": "cell-based", "settings": "ZnHPT formed in situ from HPT and zinc", "protocol": "The proliferation of exponential phase cultures of A549 and PC3 cells is assessed by formazan reduction. In brief, A549 (2000 cells/well) or PC3 (4000 cells/well) cells are seeded on 96-well microtiter plates and allowed to adhere overnight. Stock solutions of ZnHPT or PEGZnHPT in medium are serial diluted in a ratio of 1:4 down the plate. Stock solutions of MGd or ZnOAc2 or 5% mannitol in ACS grade water are added and plates are incubated at 37° C. under a 5% CO2/95% air atmosphere. After 24 hours, medium is replaced with fresh medium. After 2 additional days, medium is exchanged for fresh medium (150 μL/well) supplemented with the tetrazolium dye, 3-(4,5-dimethylthiazol-2-yl)-2,5-diphenyltetrazolium bromide (MTT, Sigma Chemical, 0.5 mg/mL). Plates are incubated at 37° C. and viable cells measured. […] Alternatively cellular reduction within plateau phase cultures is measured after 24 hours of treatment as a measure of the cytotoxicity due to treatment."}, "[7]": {"test_system": "PC3 prostate cancer cells", "settings": "PC3 xenograft", "procedure": "as §1\nIn this example, the ionophore was formulated in 5% mannitol."}, "[8]": {"settings": "mouse, in vivo"}, "[9]": {"test_system": "A549 human lung cancer cells", "settings": "A549 xenograft, FIG. 28", "procedure": "as §1"}}, "note": "Where two headings read alike, the source gives them in different places.", "data": [{"compound": "2-thiol-5-((2-methoxyethoxy)methyl)pyridine-N-oxide, Zn complex [5-PEG-[1]-ZnHPT]", "values": [{"measurement": "anticancer activity (tumor regrowth) as compared to control vehicle", "setting": "[1]", "value": "significant anticancer activity"}]}, {"compound": "CC(=O)[O-].CC(=O)[O-].CCc1c(CC)c2cc3nc(cnc4cc(OCCOCCOCCOC)c(OCCOCCOCCOC)cc4ncc4nc(cc1[n-]2)C(CCCO)=C4C)C(C)=C3CCCO.O.[Gd+3]", "note": "[MGd, motexafin gadolinium]", "values": [{"measurement": "intracellular free zinc", "setting": "cancer cells [2]", "value": "increased intracellular free zinc"}]}, {"compound": "On1ccccc1=S", "note": "[HPT]", "values": [{"measurement": "logKβ2", "setting": "[3]", "value": 5.4}]}, {"compound": "On1ccccc1=S", "note": "[ZnHPT, 1-hydroxypyridine-2-thione]", "values": [{"measurement": "growth of cancer cells in culture", "setting": "cancer cells [4]", "value": "inhibit the growth of cancer cells in culture"}, {"measurement": "bioavailability", "setting": "[5]; oral, typically formulated as a suspension in vegetable oil", "value": "poorly bioavailable"}, {"measurement": "toxicity on oral administration", "setting": "[5]; orally administered to laboratory animals", "value": "not found to be particularly toxic"}, {"measurement": "inhibition of thioredoxin reductase", "setting": "thioredoxin reductase", "value": "synergistic inhibition"}, {"measurement": "inhibition of proliferation", "setting": "[6]", "value": "inhibits proliferation in a dose dependent manner"}]}, {"compound": "2-thiol-5-((2-(2-methoxyethoxy)ethoxy)methyl)pyridine-N-oxide, Zn complex [5-PEG-[2]-ZnHPT]", "values": [{"measurement": "anticancer activity (tumor regrowth) as compared to control vehicle", "setting": "[7]; intravenous 100 μmol/kg q.d.×2 and q.d.×4, formulated in 5% mannitol, FIG. 30", "value": "significant anticancer activity"}]}, {"compound": "Zinquin", "values": [{"measurement": "logKβ2", "setting": "[3]", "value": "ca. 18"}]}, {"compound": "COCCOCCOCCOCc1ccc([S-])[n+]([O-])c1.COCCOCCOCCOCc1ccc([S-])[n+]([O-])c1.[Zn+2]", "note": "[5-PEG-[3]-ZnHPT, 2-thiol-5-((2-(2-(2-methoxyethoxy)ethoxy)ethoxy)methyl)pyridine-N-oxide, Zn complex]", "values": [{"measurement": "maximum tested without evidence of toxicity", "setting": "[8]", "value": "≥ 120", "unit": "µmol/kg"}, {"measurement": "anticancer activity (tumor regrowth)", "setting": "[9]; in combination with MGd", "value": "significant anticancer activity"}, {"measurement": "anticancer activity (tumor regrowth)", "setting": "[9]; without MGd", "value": "significant anticancer activity"}, {"measurement": "anticancer activity (tumor regrowth)", "setting": "[7]; FIG. 29", "value": "significant anticancer activity"}]}]}
